Article PMC10980815, “Cell surface patching via CXCR4-targeted nanothreads for cancer metastasis inhibition” (Nature Communications, 2024)
Ends that are not written are not given here.

What was measured:
[1] = test system: orthotopic 4T1 breast tumors; assay: Spontaneous lung metastasis model: tumor volume and pulmonary metastatic nodules; type: in vivo, female BALB/c mice
Description: For the in vivo investigation of pulmonary metastasis, 4T1 cells (1 × 10^6 cells) were injected into the third mammary fat pad of female BALB/c mice (6–8 weeks). […] Tumor volumes were recorded every other day. On day 28, lungs were harvested and fixed with Bouin’s solutions. The pulmonary metastatic nodules were counted and analyzed by hematoxylin-eosin staining.

[2] = test system: orthotopic 4T1 breast tumors; assay: Tumor-infiltrating CD8+ T lymphocytes, Tregs and MDSCs (flow cytometry); type: in vivo, female BALB/c mice; conditions: for CD3+CD8+ T cells (%) in tumor / CD11b+Gr1+ MDSCs (%) in tumor / Tregs (%) in CD4+ T cells: Supplementary Fig. 16b
Description: 4T1 cells (1 × 10^6 cells) were injected into the third mammary fat pad of female BALB/c mice (6–8-week). When tumor volumes reached nearly […] on day 7 after tumor inoculation, mice were randomly divided into 8 groups (n = 8 per group). For four groups without laser irradiation (−), mice were intravenously injected with the following samples: (1) saline on day 7, 14, 21, and 28, (2) P-PS on day 7, 14, 21, and 28, (3) P-BS-PS on day 7, 14, 21, and 28, or (4) P-BS-CM1 on day 7, 14, 21, and 28, followed by P-PS-CM2 on day 8, 15, 22, and 29 (5 mg/kg BS equivalence, CM1:CM2 1:1 mol%, 2.5 mg/kg PS equivalence), respectively. For four groups with laser irradiation (+), mice were treated with the same regimens and irradiated at 650 nm laser (580 mW/cm^2, 5 min) on day 9, 16, 23 and 30. Tumor volumes and mice survivals were recorded every other day. For the investigation of immune response and lung metastasis, 4T1 tumor-bearing female BALB/c mice (6–8-week, tumor volume~100 mm^3) were randomly divided into 8 groups (n = 5 per group) and given three rounds of above treatments. On day 28, lungs and tumors were harvested. lungs were fixed with Bouin’s solution. The pulmonary metastatic nodules were counted and analyzed by hematoxylin-eosin staining. Single-cell suspensions of tumor tissues were stained with anti-CD45-PerCP/Cy5.5 (1:300 dilution) and anti-calreticulin recombinant rabbit monoclonal antibody (1:500 dilution) at 4 °C for 1 h, and then stained with goat anti-rabbit IgG H&L Alexa Fluor® 647 (1:1000 dilution, 4 °C, 45 min), followed by flow cytometry analysis. ATP and HMGB1 concentrations in the supernatant of cell suspension were measured using a luciferase-based ATP assay kit and a mouse HMGB1 ELISA kit, respectively. Single-cell suspensions of tumors were stained with FITC anti-mouse CD3 antibody (1:300 dilution), PerCP/Cyanine5.5 anti-mouse CD4 antibody (1:300 dilution), anti-CD8α-APC (1:300 dilution), and anti-Foxp3-PE (1:300 dilution) for flow cytometry analysis of T cell subtypes (CD8^+ T cells, CD4^+ effector T cells, and Foxp3^+ regulatory T cells), and stained with PE anti-mouse/human CD11b antibody (1:300 dilution) and FITC anti-mouse Ly-6G/Ly-6C (Gr-1) antibody (1:300 dilution) for flow cytometry analysis of MDSCs (CD11b^+Gr1^+). Cytotoxic T cells in tumor tissues were investigated with immunofluorescent staining of IFN-γ and flow cytometry analysis using anti-IFN-γ-PE (1:300 dilution). For CD8-depletion assay, 4T1 tumor-bearing female BALB/c mice (6–8-week, tumor volume~100 mm^3) were randomly divided into 3 groups (n = 8 per group). Mice were intravenously given four doses of P-BS-CM1 on day 7, 14, 21 and 28, combined with P-PS-CM2 on day 8, 15, 22 and 29 (5 mg/kg BS equivalence, CM1:CM2 1:1 mol%, 2.5 mg/kg PS equivalence) in the presence or absence of InvivoMab anti-mouse CD8α (100 μg/mice). Mice were irradiated at 650 nm laser (580 mW/cm^2, 5 min) on day 9, 16, 23 and 30. Tumor volumes and mice survivals were recorded every other day.

CXCR4 = biological target: T1, CXCR4 (Mus musculus, UniProt P70658); assay: Dose-dependent chemokine receptor occupation assay; type: binding, 4T1 murine cells; conditions: 4T1 cells, 0.1 nM to 1 mM, 25 °C, 1 h; unoccupied receptor stained with PE antibody
T1 construct: endogenous in cells; host or cells: 4T1 murine breast cancer cells
Description: (§1) To validate the specificity of the BS (CXCR4-binding sequence) to CXCR4, a dose-dependent chemokine receptors occupation assay and a chemokine receptors competitive binding assay were conducted. […] Unoccupied chemokine receptors (CXCR4, CXCR7, CXCR2, CXCR5, and CCR4) on cell surface were stained with PE anti-human CD184/CXCR4 Antibody (1:300 dilution), anti-CXCR7-PE (1:300 dilution), anti-CXCR2-PE (1:300 dilution), anti-CXCR5-PE (1:300 dilution), and PE anti-human CD194/CCR4 Antibody (1:300 dilution) at 4 °C for 1 h, prior to flow cytometry analysis. In the chemokine receptors competitive binding assay, 4T1 cells (5 × 10^5 cells) were pre-blocked with PE anti-human CD184/CXCR4 Antibody (1:300 dilution), anti-CXCR7-PE (1:300 dilution), anti-CXCR2-PE (1:300 dilution), anti-CXCR5-PE (1:300 dilution), and PE anti-human CD194/CCR4 Antibody (1:300 dilution) at 4 °C for 1 h. Subsequently, these cells were treated with P-Cy5-BS-CM1-Cy5 (5 nM Cy5 equivalence) for 1 h. Following the treatments, cells were washed three times with PBS and subjected to flow cytometry analysis.

CXCR7 = biological target: T2, CXCR7 (Mus musculus, UniProt P56485); assay: Dose-dependent chemokine receptor occupation assay; type: binding, 4T1 murine cells; conditions: 4T1 cells, 0.1 nM to 1 mM, 1 h
T2 construct: endogenous in cells; host or cells: 4T1 murine breast cancer cells
Description: as §1

Nanothread-1 (P-BS-CM1) = biological target: T3, Nanothread-1 (P-BS-CM1) (not fully specified; cysteines embedded within BS joined to maleimides of the HPMA copolymer backbone (thiol-ene click chemistry) | N-terminal cysteine joined to a maleimide of the HPMA copolymer …); assay: circular dichroism; P-BS-CM1, P-CM2 and their mixtures (CM1:CM2 3:1, 1:1, 1:3), total polymer 10 mg/mL, 10 mM PBS pH 7.4, 25 °C, 10 min; conditions: both partners purified
T3 construct: source: synthetic peptides grafted on HPMA copolymer (P-Mal), dialysis and lyophilization; copies: 6 + 4
T3 chain 1: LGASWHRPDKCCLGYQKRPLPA
T3 chain 2: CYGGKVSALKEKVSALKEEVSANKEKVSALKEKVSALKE

[3] = biological target: T4, Cy5-labeled P-BS-CM1 (P-BS-CM1-Cy5) (cysteines embedded within BS joined to maleimides of the HPMA copolymer backbone (thiol-ene click chemistry) | N-terminal cysteine joined to a maleimide of the HPMA copolymer backbone (thiol-ene …)); assay: FRET or BRET; conditions: both partners purified
T4 construct: copies: 6 + 4
T4 chain 1: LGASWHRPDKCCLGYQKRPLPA
T4 chain 2: T3 chain 2

T2 sequence (P56485 whole entry): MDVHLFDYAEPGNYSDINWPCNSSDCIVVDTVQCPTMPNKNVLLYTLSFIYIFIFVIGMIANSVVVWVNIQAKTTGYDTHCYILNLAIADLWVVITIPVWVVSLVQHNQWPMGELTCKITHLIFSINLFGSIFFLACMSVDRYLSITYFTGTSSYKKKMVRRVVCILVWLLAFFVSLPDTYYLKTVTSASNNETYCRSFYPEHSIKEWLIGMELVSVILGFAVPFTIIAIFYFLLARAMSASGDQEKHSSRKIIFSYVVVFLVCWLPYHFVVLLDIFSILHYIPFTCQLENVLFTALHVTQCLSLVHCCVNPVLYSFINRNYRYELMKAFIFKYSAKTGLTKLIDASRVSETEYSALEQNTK
T1 sequence (P70658 whole entry): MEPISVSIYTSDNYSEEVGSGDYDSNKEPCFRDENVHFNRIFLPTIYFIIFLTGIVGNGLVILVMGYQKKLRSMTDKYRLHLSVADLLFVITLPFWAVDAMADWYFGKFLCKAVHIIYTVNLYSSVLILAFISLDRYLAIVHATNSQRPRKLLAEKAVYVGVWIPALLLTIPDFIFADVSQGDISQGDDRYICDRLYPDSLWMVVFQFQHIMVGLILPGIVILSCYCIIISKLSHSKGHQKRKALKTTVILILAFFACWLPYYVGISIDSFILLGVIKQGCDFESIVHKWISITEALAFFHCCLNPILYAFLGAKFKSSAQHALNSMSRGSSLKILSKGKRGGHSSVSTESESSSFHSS

With `c1cc(CN2CCCNCCNCCCNCC2)ccc1CN1CCCNCCNCCCNCC1` [AMD3100, reference compound] the “Number of metastatic nodules” value ([1]; 2mg/kg, replicate 1) was 31, the “Number of metastatic nodules” value ([1]; 2mg/kg, replicate 2) was 32 and the “Number of metastatic nodules” value ([1]; 2mg/kg, replicate 3) was 20. For the same molecule, the “Number of metastatic nodules” value ([1]; 2mg/kg, replicate 4) was 20, the “Number of metastatic nodules” value ([1]; 2mg/kg, replicate 5) was 18 and the “Number of metastatic nodules” value ([1]; 5mg/kg, replicate 1) was 12. The “Number of metastatic nodules” value ([1]; 5mg/kg, replicate 2) was 14, the “Number of metastatic nodules” value ([1]; 5mg/kg, replicate 3) was 15 and the “Number of metastatic nodules” value ([1]; 5mg/kg, replicate 4) was 9. The “Number of metastatic nodules” value ([1]; 5mg/kg, replicate 5) was 12, the primary tumor growth ([1]; nanothreads weekly i.v. x3, AMD3100 i.p. daily 2 or 5 mg/kg day 7-27) was “dose-dependent anti-tumor activity” and the “CD3+CD8+ T cells (%) in tumor” value ([2]; 2 mg/kg, replicate 1 of 5) was 0.1606%. The “CD11b+Gr1+ MDSCs (%) in tumor” value ([2]; 2 mg/kg, replicate 1 of 5) was 22.12%, the “Tregs (%) in CD4+ T cells” value ([2]; 2 mg/kg, replicate 1 of 5) was 12.05% and the “CD3+CD8+ T cells (%) in tumor” value ([2]; 2 mg/kg, replicate 2 of 5) was 0.2296%. For the same molecule, the “CD11b+Gr1+ MDSCs (%) in tumor” value ([2]; 2 mg/kg, replicate 2 of 5) was 21.04%, the “Tregs (%) in CD4+ T cells” value ([2]; 2 mg/kg, replicate 2 of 5) was 13.02% and the “CD3+CD8+ T cells (%) in tumor” value ([2]; 2 mg/kg, replicate 3 of 5) was 0.134%. For the same molecule, the “CD11b+Gr1+ MDSCs (%) in tumor” value ([2]; 2 mg/kg, replicate 3 of 5) was 19.16%, the “Tregs (%) in CD4+ T cells” value ([2]; 2 mg/kg, replicate 3 of 5) was 16.28% and the “CD3+CD8+ T cells (%) in tumor” value ([2]; 2 mg/kg, replicate 4 of 5) was 0.1643%. For the same molecule, the “CD11b+Gr1+ MDSCs (%) in tumor” value ([2]; 2 mg/kg, replicate 4 of 5) was 20.68%, the “Tregs (%) in CD4+ T cells” value ([2]; 2 mg/kg, replicate 4 of 5) was 11.04% and the “CD3+CD8+ T cells (%) in tumor” value ([2]; 2 mg/kg, replicate 5 of 5) was 0.1515%. The “CD11b+Gr1+ MDSCs (%) in tumor” value ([2]; 2 mg/kg, replicate 5 of 5) was 18.7%, the “Tregs (%) in CD4+ T cells” value ([2]; 2 mg/kg, replicate 5 of 5) was 18.84% and the “CD3+CD8+ T cells (%) in tumor” value ([2]; 5 mg/kg, replicate 1 of 5) was 0.2311%. For the same molecule, the “CD11b+Gr1+ MDSCs (%) in tumor” value ([2]; 5 mg/kg, replicate 1 of 5) was 16.63%, the “Tregs (%) in CD4+ T cells” value ([2]; 5 mg/kg, replicate 1 of 5) was 7.21% and the “CD3+CD8+ T cells (%) in tumor” value ([2]; 5 mg/kg, replicate 2 of 5) was 0.1528%. For the same molecule, the “CD11b+Gr1+ MDSCs (%) in tumor” value ([2]; 5 mg/kg, replicate 2 of 5) was 14.04%, the “Tregs (%) in CD4+ T cells” value ([2]; 5 mg/kg, replicate 2 of 5) was 6.69% and the “CD3+CD8+ T cells (%) in tumor” value ([2]; 5 mg/kg, replicate 3 of 5) was 0.1403%. For the same molecule, the “CD11b+Gr1+ MDSCs (%) in tumor” value ([2]; 5 mg/kg, replicate 3 of 5) was 15.32%, the “Tregs (%) in CD4+ T cells” value ([2]; 5 mg/kg, replicate 3 of 5) was 12.48% and the “CD3+CD8+ T cells (%) in tumor” value ([2]; 5 mg/kg, replicate 4 of 5) was 0.2195%. The “CD11b+Gr1+ MDSCs (%) in tumor” value ([2]; 5 mg/kg, replicate 4 of 5) was 14.1%, the “Tregs (%) in CD4+ T cells” value ([2]; 5 mg/kg, replicate 4 of 5) was 10.38% and the “CD3+CD8+ T cells (%) in tumor” value ([2]; 5 mg/kg, replicate 5 of 5) was 0.1508%. For the same molecule, the “CD11b+Gr1+ MDSCs (%) in tumor” value ([2]; 5 mg/kg, replicate 5 of 5) was 16%, the “Tregs (%) in CD4+ T cells” value ([2]; 5 mg/kg, replicate 5 of 5) was 8.46% and the “tumor-infiltrating CD8+ T cells” value ([2]; day 28, AMD3100 i.p. daily 2 or 5 mg/kg, nanothreads weekly i.v.) was “remained low”. The CXCR4 occupation (CXCR4) was “occupied CXCR4” and the CXCR7 occupation (CXCR7) was “low affinity”.

B1: HPMA copolymer-CM2 conjugate (P-CM2) (other)
peptide: CYGGEVSALEKEVSALEKKNSALEKEVSALEKEVSALEK
modifications: not fully specified (residue 1)
notes: source: synthetic peptide grafted on HPMA copolymer (P-Mal), dialysis and lyophilization; copies: 12
B1: binds (Nanothread-1 (P-BS-CM1)).

C(HPMA copolymer)YGGEVSALEKEVSALEKKNSALEKEVSALEKEVSALEK (other, also: Cy3 label on conjugate, position not given here, copies: 12) [Cy3-labeled P-CM2 (P-CM2-Cy3)]: binds [3].
